According to US5942514A, “Quinazoline derivatives” (Zeneca Limited, priority 1995, dated 1999):

How the values were obtained:
KB cells = experiment: In vitro assay: inhibition of the EGF-stimulated growth of the human naso-pharyngeal cancer cell line KB (Test (b)); type: cell-based; settings: 72 h, EGF 10 ng/ml, 3 days, MTT, approximate values
Method: (b) An in vitro assay which determines the ability of a test compound to inhibit the EGF-stimulated growth of the human naso-pharyngeal cancer cell line KB.
KB cells were seeded into wells at a density of 1×10^4 -1.5×10^4 cells per well and grown for 24 hours in DMEM supplemented with 5% FCS (charcoal-stripped). Cell growth was determined after incubation for 3 days by the extent of metabolism of MTT tetrazolium dye to furnish a bluish colour. Cell growth was then determined in the presence of EGF (10 ng/ml) or in the presence of EGF (10 ng/ml) and a test compound at a range of concentrations. An IC50 value could then be calculated.

[1] = target: T1, EGF receptor tyrosine kinase (Homo sapiens, UniProt P00533); experiment: In vitro assay: ability of a test compound to inhibit the enzyme EGF receptor tyrosine kinase (Test (a)); type: biochemical; settings: EGF receptor tyrosine kinase from A431 cells; approximate values
T1 construct: Receptor tyrosine kinase was obtained in partially purified form from A431 cells; endogenous in cells; host or cells: A431 cells (human vulval carcinoma), Triton X-100 solubilised membrane fraction
Method: (a) An in vitro assay which determines the ability of a test compound to inhibit the enzyme EGF receptor tyrosine kinase.
A-431 cells were grown to confluence using Dulbecco's modified Eagle's medium (DMEM) containing 5% fetal calf serum (FCS). […] The homogenate was centrifuged at 400 g for 10 minutes at 0-4° C. The supernatant was centrifuged at 25,000 g for 30 minutes at 0-4° C. The pelleted material was suspended in 30 mM Hepes buffer at pH 7.4 containing 5% glycerol, 4 mM benzamidine and 1% Triton X-100, stirred for 1 hour at 0-4° C., and recentrifuged at 100,000 g for 1 hour at 0-4° C. The supernatant, containing solubilised receptor tyrosine kinase, was stored in liquid nitrogen.
There was thus obtained the test enzyme solution.
Equal volumes of this solution and a solution of epidermal growth factor (EGF; 20 μg/ml) were mixed.
[γ-^32 P]ATP (3000 Ci/mM, 250 μCi) was diluted to a volume of 2 ml by the addition of a solution of ATP (100 μM) in distilled water. An equal volume of a 4 mg/ml solution of the peptide […]in a mixture of 40 mM Hepes buffer at pH 7.4, 0.1% Triton X-100 and 10% glycerol was added.
The test compound/EGF mixture solution (5 μl) was added to the test enzyme solution (10 μl) and the mixture was incubated at 0-4° C. for 30 minutes. The ATP/peptide mixture (10 μl) was added and the mixture was incubated at 25° C. for 10 minutes. The phosphorylation reaction was terminated by the addition of 5% trichloroacetic acid (40 μl) and bovine serum albumin (BSA; 1 mg/ml, 5 μl). The mixture was allowed to stand at 4° C. for 30 minutes and then centrifuged. An aliquot (40 μl) of the supernatant was placed onto a strip of Whatman p 81 phosphocellulose paper. The strip was washed in 75 mM phosphoric acid (4×10 ml) and blotted dry. Radioactivity present in the filter paper was measured using a liquid scintillation counter (Sequence A). The reaction sequence was repeated in the absence of the EGF (Sequence B) and again in the absence of the test compound (Sequence C).
Receptor tyrosine kinase inhibition was calculated as follows: [formula]

T1 sequence (P00533 25-1210): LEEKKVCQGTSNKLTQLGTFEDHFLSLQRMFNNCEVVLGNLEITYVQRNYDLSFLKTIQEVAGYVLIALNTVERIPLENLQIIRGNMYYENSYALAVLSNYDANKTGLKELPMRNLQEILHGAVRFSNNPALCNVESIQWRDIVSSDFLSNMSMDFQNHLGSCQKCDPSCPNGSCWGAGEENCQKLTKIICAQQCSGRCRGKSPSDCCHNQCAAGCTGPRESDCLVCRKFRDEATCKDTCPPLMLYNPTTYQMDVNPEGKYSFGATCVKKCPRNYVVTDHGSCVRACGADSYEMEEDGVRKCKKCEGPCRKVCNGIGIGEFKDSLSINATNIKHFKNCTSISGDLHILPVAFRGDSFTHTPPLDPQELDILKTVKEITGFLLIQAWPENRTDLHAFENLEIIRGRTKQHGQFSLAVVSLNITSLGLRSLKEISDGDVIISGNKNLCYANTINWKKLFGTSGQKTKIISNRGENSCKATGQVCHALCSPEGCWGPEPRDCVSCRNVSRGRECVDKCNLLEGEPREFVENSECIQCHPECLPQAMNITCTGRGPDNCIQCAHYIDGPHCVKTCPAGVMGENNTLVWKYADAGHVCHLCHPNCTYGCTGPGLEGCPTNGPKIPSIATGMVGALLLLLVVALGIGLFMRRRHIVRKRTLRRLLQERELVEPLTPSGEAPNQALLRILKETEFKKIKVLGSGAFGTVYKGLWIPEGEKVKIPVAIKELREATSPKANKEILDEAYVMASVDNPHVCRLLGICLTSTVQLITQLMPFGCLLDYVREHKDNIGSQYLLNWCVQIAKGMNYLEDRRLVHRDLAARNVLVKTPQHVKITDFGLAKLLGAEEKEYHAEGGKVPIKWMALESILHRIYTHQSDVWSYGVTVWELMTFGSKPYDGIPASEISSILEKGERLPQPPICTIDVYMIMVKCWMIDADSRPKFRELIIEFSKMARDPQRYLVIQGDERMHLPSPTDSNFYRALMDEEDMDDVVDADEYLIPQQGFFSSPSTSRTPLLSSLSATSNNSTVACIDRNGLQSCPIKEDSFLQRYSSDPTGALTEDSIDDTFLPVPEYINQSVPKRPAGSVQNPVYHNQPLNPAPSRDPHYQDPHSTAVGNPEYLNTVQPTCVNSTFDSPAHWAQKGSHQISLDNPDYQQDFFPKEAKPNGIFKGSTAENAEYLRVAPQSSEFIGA

Row | SMILES | IC50 (KB cells) | IC50 [1]
1 | COCCCNc1ccc2ncnc(Nc3ccc(F)c(Cl)c3)c2c1 [Example 1, 4-(3'-chloro-4'-fluoroanilino)-6-(3-methoxypropylamino)quinazoline] | 100 nM | 50 nM
2 | COCCNc1ccc2ncnc(Nc3ccc(F)c(F)c3)c2c1 [Example 2, 4-(3',4'-difluoroanilino)-6-(2-methoxyethylamino)quinazoline] | 500 nM | 300 nM
3 | COCCNc1ccc2ncnc(Nc3ccc(F)c(Cl)c3)c2c1 [Example 3, 4-(3'-chloro-4'-fluoroanilino)-6-(2-methoxyethylamino)quinazoline] | 300 nM | 40 nM
4 | COCCNc1ccc2ncnc(Nc3ccc(F)cc3F)c2c1 [Example 4, 4-(2',4'-difluoroanilino)-6-(2-methoxyethylamino)quinazoline] | 1100 nM | 300 nM
